The values that follow come from BindingDB's records for doi:10.1074/jbc.M607913200 (Incyte, 2006).

The term IC50 denotes the concentration that inhibits the measured activity by half. Low values mean greater potency in that assay, high ones weaker potency in that assay.

Non-standard residues stand in square brackets, D forms with d. Residues, ends and D or L forms follow the SMILES beside them. F2Pmp = N[C@@H](Cc1ccc(C(F)(F)P(=O)(O)O)cc1)C(=O)O

The target in this assay is T1, Tyrosine-protein phosphatase non-receptor type 1 [1-298] (Homo sapiens, UniProt P18031).
T1 construct: 1-298
T1 sequence (P18031 whole entry): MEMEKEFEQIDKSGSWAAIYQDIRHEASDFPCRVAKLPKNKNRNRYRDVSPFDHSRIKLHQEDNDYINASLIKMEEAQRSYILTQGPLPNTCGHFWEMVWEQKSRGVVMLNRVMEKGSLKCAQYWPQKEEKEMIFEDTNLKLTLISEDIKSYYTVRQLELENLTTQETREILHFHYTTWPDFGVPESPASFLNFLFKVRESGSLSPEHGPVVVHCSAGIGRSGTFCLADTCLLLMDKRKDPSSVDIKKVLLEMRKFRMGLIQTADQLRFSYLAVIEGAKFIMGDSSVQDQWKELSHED
The assay is described as follows: Phosphatase Inhibition Assay.

For the compound `O=C1CC(c2ccc(C[C@H](NS(=O)(=O)c3ccccc3)c3nc4ccccc4[nH]3)cc2F)S(=O)(=O)N1` (stereo partly drawn) [N-[(1S)-1-(1H-1,3-benzodiazol-2-yl)-2-[3-fluoro-4-(1,1,3-trioxo-1,2-thiazolidin-5-yl)phenyl]ethyl]benzenesulfonamide], the midpoint of inhibition, the IC50, lay at 0.034 µM.

For `O=C1CC(c2ccc(C[C@H](NS(=O)(=O)c3cccc(Oc4ccc(C(F)(F)F)cc4)c3)c3nc4ccccc4[nH]3)cc2)S(=O)(=O)N1` (stereo partly drawn) [N-[(1S)-1-(1H-1,3-benzodiazol-2-yl)-2-[4-(1,1,3-trioxo-1,2-thiazolidin-5-yl)phenyl]ethyl]-3-[4-(trifluoromethyl)phenoxy]benzene-1-sulfonamide], the IC50 was 0.22 µM. Against the preceding compound, the IC50 is about 6.5-fold higher.

`CC(=O)N[C@@H](Cc1ccc(C2CC(=O)NS2(=O)=O)cc1)c1nc2ccccc2[nH]1` (stereo partly drawn) [N-[(1S)-1-(1H-1,3-benzodiazol-2-yl)-2-[4-(1,1,3-trioxo-1,2-thiazolidin-5-yl)phenyl]ethyl]acetamide] displayed an IC50 of 2.6 µM.

Compound `O=C(CCc1ccccc1)N[C@@H](Cc1ccc(C2CC(=O)NS2(=O)=O)cc1)c1nc2ccccc2[nH]1` (stereo partly drawn) [N-[(1S)-1-(1H-1,3-benzodiazol-2-yl)-2-[4-(1,1,3-trioxo-1,2-thiazolidin-5-yl)phenyl]ethyl]-3-phenylpropanamide] showed an IC50 of 0.6 µM.

`CN1CCOc2cc(S(=O)(=O)N[C@@H](Cc3ccc([C@@H]4CC(=O)NS4(=O)=O)cc3)c3nc4ccccc4[nH]3)ccc21` [N-[(1S)-1-(1H-benzoimidazol-2-yl)-2-[4-[(5S)-1,1,3-trioxo-1,2-thiazolidin-5-yl]phenyl]ethyl]-7-methyl-10-oxa-7-azabicyclo[4.4.0]deca-2,4,11-triene-3-sulfonamide] registered an IC50 (pH 7, 22 °C) of 0.059 µM.

As for `O=C1CC(c2ccc(C[C@H](NS(=O)(=O)c3ccc(Oc4ccncc4)cc3)c3nc4ccccc4[nH]3)cc2)S(=O)(=O)N1` (stereo partly drawn) [N-[(1S)-1-(1H-1,3-benzodiazol-2-yl)-2-[4-(1,1,3-trioxo-1,2-thiazolidin-5-yl)phenyl]ethyl]-4-(pyridin-4-yloxy)benzene-1-sulfonamide], the IC50 is 0.12 µM.

In turn, `N#Cc1cc(C[C@H](NS(=O)(=O)c2ccccc2)c2nc3ccccc3[nH]2)ccc1C1CC(=O)NS1(=O)=O` (stereo partly drawn) [N-[(1S)-1-(1H-1,3-benzodiazol-2-yl)-2-[3-cyano-4-(1,1,3-trioxo-1,2-thiazolidin-5-yl)phenyl]ethyl]benzenesulfonamide] showed an IC50 of 0.031 µM.

Consider `CC(=O)N[C@@H](Cc1ccccc1)C(=O)N[C@@H](Cc1ccc(C(F)(F)P(=O)(O)O)cc1)C(N)=O` [DFMP 5] (Ac-Phe-[F2Pmp]-NH2), for which half-maximal inhibition (pH 7, 22 °C) (IC50) was put at 1.7 µM.

The compound `O=C1CC(c2ccc(C[C@H](NC(=O)C(F)(F)c3ccccc3)c3nc4ccccc4[nH]3)cc2)S(=O)(=O)N1` (stereo partly drawn) [N-[(1S)-1-(1H-1,3-benzodiazol-2-yl)-2-[4-(1,1,3-trioxo-1,2-thiazolidin-5-yl)phenyl]ethyl]-2,2-difluoro-2-phenylacetamide] returned an IC50 of 0.2 µM.

Consider `NC(=O)[C@H](Cc1ccc(C(F)(F)P(=O)(O)O)cc1)NC(=O)CNC(=O)Cc1ccc(C(F)(F)P(=O)(O)O)cc1` [({4-[(2S)-2-carbamoyl-2-[2-(1-{4-[difluoro(phosphono)methyl]phenyl}acetamido)acetamido]ethyl]phenyl}difluoromethyl)phosphonic acid], for which the half-inhibitory concentration (IC50) (pH 7, 22 °C) was determined as 0.042 µM.

As for `O=C1CC(c2ccc(C[C@H](NS(=O)(=O)c3ccccc3Cl)c3nc4ccccc4[nH]3)cc2)S(=O)(=O)N1` (stereo partly drawn) [N-[(1S)-1-(1H-1,3-benzodiazol-2-yl)-2-[4-(1,1,3-trioxo-1,2-thiazolidin-5-yl)phenyl]ethyl]-2-chlorobenzene-1-sulfonamide], half-maximal inhibition (IC50) was put at 0.16 µM. This lies in the sub-micromolar range.

Turning to `O=C1C[C@@H](c2ccc(C[C@H](Nc3nc4c(F)cc(Cl)cc4s3)c3nc4ccccc4[nH]3)cc2)S(=O)(=O)N1` [(5S)-5-{4-[(2S)-2-(1H-1,3-benzodiazol-2-yl)-2-[(6-chloro-4-fluoro-1,3-benzothiazol-2-yl)amino]ethyl]phenyl}-1,2-thiazolidine-1,1,3-trione], where the note is “pH 7, 22 °C”, the IC50 came out at 1.8 µM. This counts as single-digit micromolar.

As for `O=C1CC(c2ccc(C[C@H](NS(=O)(=O)c3cc(C(F)(F)F)ccc3C(F)(F)F)c3nc4ccccc4[nH]3)cc2)S(=O)(=O)N1` (stereo partly drawn) [N-[(1S)-1-(1H-1,3-benzodiazol-2-yl)-2-[4-(1,1,3-trioxo-1,2-thiazolidin-5-yl)phenyl]ethyl]-2,5-bis(trifluoromethyl)benzene-1-sulfonamide], the IC50 was 0.21 µM.

Take `CC(F)(F)C(=O)N[C@@H](Cc1ccc(C2CC(=O)NS2(=O)=O)cc1)c1nc2ccccc2[nH]1` (stereo partly drawn) [N-[(1S)-1-(1H-1,3-benzodiazol-2-yl)-2-[4-(1,1,3-trioxo-1,2-thiazolidin-5-yl)phenyl]ethyl]-2,2-difluoropropanamide]: the IC50 amounted to 0.3 µM.

In turn, `O=C1CC(c2ccc(C[C@H](NS(=O)(=O)c3ccc(Br)c(C(F)(F)F)c3)c3nc4ccccc4[nH]3)cc2)S(=O)(=O)N1` (stereo partly drawn) [N-[(1S)-1-(1H-1,3-benzodiazol-2-yl)-2-[4-(1,1,3-trioxo-1,2-thiazolidin-5-yl)phenyl]ethyl]-4-bromo-3-(trifluoromethyl)benzene-1-sulfonamide] registered an IC50 of 0.04 µM.

On to `Cc1cc(S(=O)(=O)N[C@@H](Cc2ccc(C3CC(=O)NS3(=O)=O)cc2)c2nc3ccccc3[nH]2)ccc1-c1ccccc1` (stereo partly drawn) [N-[(1S)-1-(1H-1,3-benzodiazol-2-yl)-2-[4-(1,1,3-trioxo-1,2-thiazolidin-5-yl)phenyl]ethyl]-3-methyl-4-phenylbenzene-1-sulfonamide], for which the IC50 worked out at 0.09 µM.

`O=C1CC(c2ccc(C[C@H](NS(=O)(=O)c3ccccc3)c3nc4ccccc4[nH]3)cc2Cl)S(=O)(=O)N1` (stereo partly drawn) [N-[(1S)-1-(1H-1,3-benzodiazol-2-yl)-2-[3-chloro-4-(1,1,3-trioxo-1,2-thiazolidin-5-yl)phenyl]ethyl]benzenesulfonamide] came in with an IC50 of 0.075 µM.

Compound `Cc1ccc(S(=O)(=O)N[C@@H](Cc2ccc(C3CC(=O)NS3(=O)=O)cc2)c2nc3ccccc3[nH]2)cc1` (stereo partly drawn) [N-[(1S)-1-(1H-1,3-benzodiazol-2-yl)-2-[4-(1,1,3-trioxo-1,2-thiazolidin-5-yl)phenyl]ethyl]-4-methylbenzene-1-sulfonamide] came in with an IC50 of 0.08 µM.

Compound `Cc1ccccc1S(=O)(=O)N[C@@H](Cc1ccc(C2CC(=O)NS2(=O)=O)cc1)c1nc2ccccc2[nH]1` (stereo partly drawn) [N-[(1S)-1-(1H-1,3-benzodiazol-2-yl)-2-[4-(1,1,3-trioxo-1,2-thiazolidin-5-yl)phenyl]ethyl]-2-methylbenzene-1-sulfonamide] returned an IC50 of 0.3 µM.

`C#Cc1cc(C[C@H](NS(=O)(=O)c2ccccc2)c2nc3ccccc3[nH]2)ccc1C1CC(=O)NS1(=O)=O` (stereo partly drawn) [N-[(1S)-1-(1H-1,3-benzodiazol-2-yl)-2-[3-ethynyl-4-(1,1,3-trioxo-1,2-thiazolidin-5-yl)phenyl]ethyl]benzenesulfonamide] gave an IC50 of 0.12 µM.

`CC(C)C(=O)N[C@@H](Cc1ccc(C2CC(=O)NS2(=O)=O)cc1)c1nc2ccccc2[nH]1` (stereo partly drawn) [N-[(1S)-1-(1H-1,3-benzodiazol-2-yl)-2-[4-(1,1,3-trioxo-1,2-thiazolidin-5-yl)phenyl]ethyl]-2-methylpropanamide] registered an IC50 of 3.2 µM.

Take `O=C1CC(c2ccc(C[C@H](NS(=O)(=O)c3ccccc3)c3nc4ccccc4[nH]3)cc2)S(=O)(=O)N1` (stereo partly drawn) [N-[(1S)-1-(1H-1,3-benzodiazol-2-yl)-2-[4-(1,1,3-trioxo-1,2-thiazolidin-5-yl)phenyl]ethyl]benzenesulfonamide]: the IC50 was 0.12 µM. Compared with the last compound, the IC50 is about 27-fold lower.
